Measurements from patent publication US20210395674A1, “COMPOSITION FOR INCREASING BIOLOGICAL ACTIVITY OF STEM CELLS USING MIXTURE 4F” (YOUTH BIO GLOBAL CO., LTD., priority 2019, published 2021).

System: umbilical cord blood monocytes (MNCs) / EPC colonies
Assay: Colony formation, proliferative ability and cell cycle in xeno-free culture
Type: cell-based, human
Procedure: FIG. […] Specifically, the isolation and culture of […] (EPC) is performed by density difference centrifugation using ficoll after receiving umbilical cord blood (IRB approval number 05-2017-053, 50 cc or more) of mothers who visited the Department of Obstetrics and Gynecology, Pusan National University, Yangsan to obtain monocytes (MNCs). After red blood cell lysis, the cells were seeded (7>10^6 cells/well) in a 6-well plate coated with fibronectin (1 μg/cm^2), and were cultured for 5 days in an atmosphere of 5% CO2 at 37° C. under conditions of each medium ([…] endothelial cell differentiation (EGM2 media)). […] After culture, the medium was exchanged every day, and the EPC colony attachment was identified and subcultured when 70% or more thereof is under a confluent state. According to the type of culture medium, the cells obtained by culturing with the conventional vascular endothelial cell differentiation medium […]
[…] Example 11 were separated into single cells, and proliferative ability, cell cycle change, and colony formation ability were analyzed in the same manner as in Example 6. For the control group of this example, cells cultured by the conventional culture method (L-EPC) and cells cultured in a medium containing each single component in a xeno-free medium [a group treated with fucoidan (Fu, 0.1 μg/ml), a group treated with a tauroursodeoxycholic acid (TD, 25 μM), a group treated with oleuropein (OLP, 0.5 μM), and a group treated with a vascular endothelial growth factor (VEGF, 100 ng/ml)]were used.

With vascular endothelial growth factor the “colony formation ability (EPC colonies)” value (xeno-free medium) was “EPC colonies were identified”, the “division time of the cells” value (xeno-free medium) was “prolonged” and the “expression of VE-cadherin” value (xeno-free medium with single component) was “low”.
